Laboratory results from ChEMBL document CHEMBL1201862, “PubChem BioAssay data set” (2004).
The source made the active and inactive calls.

What was measured:
[1] = test system: Streptococcus sp. 'group A'; test: growth inhibition of control SK(-) GAS strain, dose response, counter-screen for streptokinase expression inhibitor project, luminescence, kanamycin, BacTiterGlo, confirmation (AID 1900); format: functional, organism-based
Streptokinase A = target: T1, Streptokinase A (Streptococcus pyogenes serotype M1, UniProt P10520); test: S. pyogenes streptokinase expression inhibitors, potency, dose response, plasminogen activation absorbance, OD405 (AID 1914); format: functional, Streptococcus pyogenes M1 GAS;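 note: secreted streptokinase activity via plasminogen activation per viability signal from cell pellet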
T1 sequence (P10520 whole entry): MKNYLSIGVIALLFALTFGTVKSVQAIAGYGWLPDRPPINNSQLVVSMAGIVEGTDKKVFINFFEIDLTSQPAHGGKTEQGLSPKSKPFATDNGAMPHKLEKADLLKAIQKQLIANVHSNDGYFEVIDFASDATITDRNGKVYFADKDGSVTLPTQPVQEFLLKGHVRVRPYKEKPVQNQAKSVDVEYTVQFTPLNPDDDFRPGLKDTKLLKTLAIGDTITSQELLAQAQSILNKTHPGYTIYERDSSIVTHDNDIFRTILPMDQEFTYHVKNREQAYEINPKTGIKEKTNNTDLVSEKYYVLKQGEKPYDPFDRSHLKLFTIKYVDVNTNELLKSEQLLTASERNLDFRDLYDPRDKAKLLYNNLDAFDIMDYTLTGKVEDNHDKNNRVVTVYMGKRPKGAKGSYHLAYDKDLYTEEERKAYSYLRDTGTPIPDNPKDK

Streptococcus = test: Group A Streptococcus viability loss, dose response, counter-screen for streptokinase expression inhibitor project, luminescence, BacTiterGlo (AID 1915); format: functional, organism-based;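 note: potency for reduction of bacterial viability or growth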
[2] = target: T2, Rac GTPase-activating protein 1 (Homo sapiens, UniProt Q9H0H5); test: MgcRacGAP GTPase-activating activity inhibitors, confirmation, biochemical, ADP Hunter fluorescence, primary and confirmatory (AID 624330); format: functional
T2 sequence (Q9H0H5 whole entry): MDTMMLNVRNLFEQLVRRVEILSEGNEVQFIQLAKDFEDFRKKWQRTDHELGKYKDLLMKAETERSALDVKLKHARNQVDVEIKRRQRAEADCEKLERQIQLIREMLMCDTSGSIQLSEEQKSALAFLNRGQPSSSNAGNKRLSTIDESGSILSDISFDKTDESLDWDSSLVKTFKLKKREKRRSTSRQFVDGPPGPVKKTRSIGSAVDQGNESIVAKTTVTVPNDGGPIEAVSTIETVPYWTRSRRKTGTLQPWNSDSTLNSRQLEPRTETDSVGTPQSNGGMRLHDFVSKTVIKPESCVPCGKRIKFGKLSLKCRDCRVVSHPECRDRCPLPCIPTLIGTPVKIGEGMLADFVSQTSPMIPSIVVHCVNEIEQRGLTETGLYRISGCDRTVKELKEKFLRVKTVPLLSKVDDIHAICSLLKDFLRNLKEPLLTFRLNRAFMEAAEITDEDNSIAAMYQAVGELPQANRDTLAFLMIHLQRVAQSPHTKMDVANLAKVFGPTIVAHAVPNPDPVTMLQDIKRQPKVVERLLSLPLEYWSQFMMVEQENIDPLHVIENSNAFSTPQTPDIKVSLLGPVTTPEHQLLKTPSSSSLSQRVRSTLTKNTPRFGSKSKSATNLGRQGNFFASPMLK

[3] = target: T3, Corticotropin-releasing factor receptor 2/Corticotropin-releasing factor-binding protein (Homo sapiens, UniProt P24387+Q13324); test: activators of CRF receptor 2 with binding protein – uHTS hits, confirmation (AID 602473); format: functional; details: read-out: EC50_Mean
T3 sequence (Q13324 whole entry): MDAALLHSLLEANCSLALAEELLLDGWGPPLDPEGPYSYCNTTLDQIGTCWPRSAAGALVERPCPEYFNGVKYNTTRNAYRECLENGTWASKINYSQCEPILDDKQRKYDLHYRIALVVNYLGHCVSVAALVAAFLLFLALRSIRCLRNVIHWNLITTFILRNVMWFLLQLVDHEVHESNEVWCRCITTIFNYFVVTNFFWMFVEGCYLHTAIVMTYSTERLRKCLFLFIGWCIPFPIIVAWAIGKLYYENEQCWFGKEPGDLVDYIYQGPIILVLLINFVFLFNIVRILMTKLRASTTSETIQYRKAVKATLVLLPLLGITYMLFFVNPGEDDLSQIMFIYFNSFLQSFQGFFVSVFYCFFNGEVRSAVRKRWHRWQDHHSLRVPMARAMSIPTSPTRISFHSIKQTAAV
T3 sequence (P24387 whole entry): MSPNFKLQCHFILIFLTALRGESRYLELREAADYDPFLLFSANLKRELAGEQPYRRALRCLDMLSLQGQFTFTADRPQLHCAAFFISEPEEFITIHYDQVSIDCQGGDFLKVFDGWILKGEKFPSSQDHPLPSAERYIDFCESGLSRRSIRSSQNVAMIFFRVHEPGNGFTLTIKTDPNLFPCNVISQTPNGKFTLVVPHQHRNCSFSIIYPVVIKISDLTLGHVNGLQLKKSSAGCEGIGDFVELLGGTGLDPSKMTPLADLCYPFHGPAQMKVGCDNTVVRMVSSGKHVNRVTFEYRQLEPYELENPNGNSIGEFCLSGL

[4] = target: T3, Corticotropin-releasing factor receptor 2/Corticotropin-releasing factor-binding protein; test: Dose Response confirmation of uHTS hits for small molecule antagonists of the CRF-binding protein and CRF-R2 receptor complex.; format: functional; details: read-out: IC50_Mean
Cytochrome P450 2C19 = Cytochrome P450 2C19 (Homo sapiens, UniProt P33261); test: Cytochrome panel assay with activity outcomes. Panel member name: p450-cyp2c19 Compounds with AC50 equal or less than 10 uM are considered active; format: functional; details: read-out: AC50
Chain of Cytochrome P450 2C19 (P33261 whole entry): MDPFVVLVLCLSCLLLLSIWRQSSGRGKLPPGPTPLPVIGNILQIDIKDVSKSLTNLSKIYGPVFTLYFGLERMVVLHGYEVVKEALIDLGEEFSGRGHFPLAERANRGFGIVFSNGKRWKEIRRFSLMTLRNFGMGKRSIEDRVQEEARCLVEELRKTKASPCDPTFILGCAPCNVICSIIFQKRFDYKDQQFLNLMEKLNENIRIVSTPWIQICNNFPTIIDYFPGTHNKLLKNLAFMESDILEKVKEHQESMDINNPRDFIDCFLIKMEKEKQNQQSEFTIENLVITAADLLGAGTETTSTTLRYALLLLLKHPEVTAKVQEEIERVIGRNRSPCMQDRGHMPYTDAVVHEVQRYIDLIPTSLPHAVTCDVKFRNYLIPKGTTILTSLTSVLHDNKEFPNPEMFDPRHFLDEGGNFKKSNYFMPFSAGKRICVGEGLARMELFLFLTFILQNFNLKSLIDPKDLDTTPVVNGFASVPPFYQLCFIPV

Cytochrome P450 2C9 = Cytochrome P450 2C9 (Homo sapiens, UniProt P11712)
Chain of Cytochrome P450 2C9 (P11712 whole entry): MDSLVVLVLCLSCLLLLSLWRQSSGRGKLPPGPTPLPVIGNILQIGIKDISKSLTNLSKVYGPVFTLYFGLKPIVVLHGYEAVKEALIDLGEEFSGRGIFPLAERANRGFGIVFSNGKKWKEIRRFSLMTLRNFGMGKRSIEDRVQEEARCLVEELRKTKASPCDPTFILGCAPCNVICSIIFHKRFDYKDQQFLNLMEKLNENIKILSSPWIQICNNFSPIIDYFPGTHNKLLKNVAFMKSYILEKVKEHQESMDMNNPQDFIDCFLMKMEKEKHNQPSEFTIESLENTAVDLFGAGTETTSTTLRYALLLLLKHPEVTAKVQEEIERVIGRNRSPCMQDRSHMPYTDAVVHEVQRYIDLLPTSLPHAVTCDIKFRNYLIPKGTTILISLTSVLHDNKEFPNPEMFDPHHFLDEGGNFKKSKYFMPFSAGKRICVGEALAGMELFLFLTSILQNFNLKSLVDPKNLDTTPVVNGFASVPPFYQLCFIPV

Cytochrome P450 1A2 = target: T4, Cytochrome P450 1A2 (Homo sapiens, UniProt P05177);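 note: PubChem cytochrome P450 panel assay, CYP1A2 panel member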
T4 sequence (P05177 whole entry): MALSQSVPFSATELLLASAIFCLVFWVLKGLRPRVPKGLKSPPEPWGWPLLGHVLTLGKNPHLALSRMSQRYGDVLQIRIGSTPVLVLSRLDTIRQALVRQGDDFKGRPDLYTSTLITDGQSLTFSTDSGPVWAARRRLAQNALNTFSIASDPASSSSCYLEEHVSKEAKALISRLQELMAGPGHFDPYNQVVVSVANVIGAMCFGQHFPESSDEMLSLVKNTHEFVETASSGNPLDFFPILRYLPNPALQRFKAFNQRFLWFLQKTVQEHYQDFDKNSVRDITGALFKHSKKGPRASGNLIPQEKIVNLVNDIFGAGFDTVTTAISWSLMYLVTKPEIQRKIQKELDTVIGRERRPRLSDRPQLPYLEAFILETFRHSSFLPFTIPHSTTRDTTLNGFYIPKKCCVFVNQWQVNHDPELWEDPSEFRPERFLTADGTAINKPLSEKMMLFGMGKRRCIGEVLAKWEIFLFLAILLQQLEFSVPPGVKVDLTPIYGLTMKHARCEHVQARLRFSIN

Paired box protein Pax-8 = Paired box protein Pax-8 (Homo sapiens, UniProt Q06710); test: inhibitors of PAX8-driven TPO luciferase reporter, dose response, RMG-I cells, cherry-pick (AID 687027); format: functional, cell-based;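 note: luciferase reporter driven by Pax8 target thyroperoxidase promoter measured by SteadyGlo luminescence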
Chain of Paired box protein Pax-8 (Q06710 whole entry): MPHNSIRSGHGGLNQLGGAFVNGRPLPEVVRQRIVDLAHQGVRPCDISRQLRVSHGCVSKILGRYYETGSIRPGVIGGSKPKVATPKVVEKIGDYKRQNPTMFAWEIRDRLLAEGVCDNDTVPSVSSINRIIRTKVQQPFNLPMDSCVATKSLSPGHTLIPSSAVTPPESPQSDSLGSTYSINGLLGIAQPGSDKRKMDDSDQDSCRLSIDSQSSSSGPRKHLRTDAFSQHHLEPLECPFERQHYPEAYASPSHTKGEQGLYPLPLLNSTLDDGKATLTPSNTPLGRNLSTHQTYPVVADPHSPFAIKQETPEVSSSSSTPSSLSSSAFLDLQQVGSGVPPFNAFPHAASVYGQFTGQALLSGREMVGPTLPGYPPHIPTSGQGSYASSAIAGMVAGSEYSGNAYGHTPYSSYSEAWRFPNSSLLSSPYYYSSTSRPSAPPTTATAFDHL

[5] = target: T5, Heat shock factor protein 1 (Mus musculus, UniProt P38532); test: inhibition of MG132-induced HSE-luciferase signal, confirmation, cell-based, NIH3T3, luminescence, dose retest (AID 2382); format: functional;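 note: NIH3T3 fibroblasts with HSF1-driven luciferase reporter stressed by proteasome inhibitor MG132; luminescence from HSF1-driven luciferase expression after 8 hours of MG132 stress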
T5 sequence (P38532 whole entry): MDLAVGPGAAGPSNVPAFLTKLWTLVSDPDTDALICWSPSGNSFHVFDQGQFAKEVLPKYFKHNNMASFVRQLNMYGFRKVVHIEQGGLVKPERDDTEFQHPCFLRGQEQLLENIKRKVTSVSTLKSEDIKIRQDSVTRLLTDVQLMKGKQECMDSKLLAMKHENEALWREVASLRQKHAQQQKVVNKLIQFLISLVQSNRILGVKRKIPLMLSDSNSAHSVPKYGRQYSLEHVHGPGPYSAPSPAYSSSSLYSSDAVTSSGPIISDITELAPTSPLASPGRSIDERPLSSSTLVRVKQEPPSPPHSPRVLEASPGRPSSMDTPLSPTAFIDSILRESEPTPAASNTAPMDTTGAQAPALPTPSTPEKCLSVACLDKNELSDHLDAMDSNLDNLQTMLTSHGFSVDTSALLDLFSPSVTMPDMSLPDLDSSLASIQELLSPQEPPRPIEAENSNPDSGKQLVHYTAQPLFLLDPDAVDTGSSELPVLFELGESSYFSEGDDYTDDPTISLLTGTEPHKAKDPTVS

| SMILES | EC50 (Streptokinase A) | EC50 (Streptococcus) | EC50 [3] | IC50 [4] | also measured |
| --- | --- | --- | --- | --- | --- |
| Cc1noc(C)c1-c1nnc(-c2ccc(OC(F)(F)F)cc2)o1 | > 150 µM (not active) | > 150 µM (not active) |  |  | EC50 [1]: > 150 µM (not active) |
| O=C(c1ccccc1F)N1CCN(Cc2ccc3c(c2)OCO3)CC1 |  |  |  |  | IC50 [2]: 125 µM (active) |
| Clc1ccc(-c2nnc(CSc3nnc(-c4cccs4)o3)o2)cc1 |  |  | > 53 µM (inactive) | > 47.1 µM (inactive) |  |
| Cc1sc2ncnc(OCC(=O)NC(C)C)c2c1C |  |  | > 53 µM (inactive) | > 47.1 µM (inactive) | AC50 (Cytochrome P450 2C19): 20 µM (inconclusive); AC50 (Cytochrome P450 2C9): 22.4 µM (inconclusive); AC50 (Cytochrome P450 1A2): 31.6 µM (inconclusive) |
| Cc1cccc(C(=O)NC(=S)N2CCN(C(=S)NC(=O)c3cccc(C)c3)CC2)c1 |  |  | > 53 µM (inactive) | > 47.1 µM (inactive) |  |
| Cc1ccc(S(=O)(=O)Nc2ccc3c(c2)C(=O)N([C@H](C)CO)C[C@@H](C)[C@H](CN(C)Cc2ccc(C(F)(F)F)cc2)OCCCC[C@@H](C)O3)cc1 |  |  |  |  | AC50 (Paired box protein Pax-8): 8.45 µM (active) |
| OC(C/N=c1\sc2ccccc2n1CC(O)COc1ccccc1)COc1ccccc1 (centres undefined) | 10.3 µM (active) | > 150 µM (not active) |  |  | EC50 [1]: 8.85 µM (active) |
| C[C@@H]1CCCCO[C@H](CN(C)Cc2ccc(Cl)c(Cl)c2)[C@@H](C)CN([C@@H](C)CO)C(=O)c2cc(NS(=O)(=O)c3ccc(Cl)cc3)ccc2O1 |  |  |  |  | AC50 (Paired box protein Pax-8): 10.2 µM (active) |
| Oc1ccc(N2CCN(Cc3cc4c(cc3Br)OCCO4)CC2)cc1 |  |  |  |  | IC50 [2]: 66.7 µM (active) |
| O=C1N=C(N/N=C/c2cccs2)SC1Cc1ccc(Cl)c(Cl)c1 (centres undefined) | > 150 µM (not active) | > 150 µM (not active) |  |  | EC50 [5]: 21 µM (active) |
| CCOC(=O)c1sc(NC(=O)c2cccc(S(=O)(=O)N3CCN(C)CC3)c2)cc1C |  |  | > 53 µM (inactive) | > 47.1 µM (inactive) |  |
| Cc1ccc(CN2CCN(C3CCOCC3)CC2CCO)cc1 (centres undefined) |  |  | > 53 µM (inactive) | > 47.1 µM (inactive) |  |
| O=C(NCc1ccccn1)C1CCN(S(=O)(=O)c2c[nH]cn2)CC1 |  |  | > 53 µM (inactive) | > 47.1 µM (inactive) |  |
| C[C@@H]1CN([C@H](C)CO)C(=O)c2cc(NC(=O)Nc3ccc(F)cc3)ccc2O[C@@H](C)CCCCO[C@H]1CN(C)S(=O)(=O)c1ccc(F)cc1 |  |  |  |  | AC50 (Paired box protein Pax-8): 8.62 µM (active) |
| COc1ccc(NC2CCCN(C(=O)c3csc(C)n3)C2)cc1 (centres undefined) |  |  |  |  | IC50 [2]: 107 µM (active) |
| COc1cc(NC(=O)CSc2ncnc3sc4c(c23)CCCC4)c(C(=O)O)cc1OC | > 150 µM (not active) | > 150 µM (not active) |  |  | EC50 [1]: 20.8 µM (active) |
| Cc1cc(/C=C2/C(=N)N3C(=NC2=O)SN=C3S(C)(=O)=O)c(C)n1-c1ccc(F)cc1 | > 150 µM (not active) | > 150 µM (not active) |  |  | EC50 [1]: 9.96 µM (active) |
| CCOC(=O)c1c(O)cc(C)cc1Nc1ccccc1 | 139 µM (active) | > 150 µM (not active) |  |  | EC50 [1]: > 150 µM (not active) |
| O=C(Nc1ccc([N+](=O)[O-])cn1)c1cc(-c2cccc(Br)c2)nc2ccccc12 |  |  |  |  | AC50 (Paired box protein Pax-8): 45.6 µM (active) |
| COc1cccc(C2CC(c3cccs3)=NN2C(=S)Nc2ccccc2)c1OC (centres undefined) |  |  | > 53 µM (inactive) | > 47.1 µM (inactive) |  |
| Cc1cc2nc(N=C(N)NC(=O)C(C)C)nc(C)c2cc1C | > 150 µM (not active) |  |  |  |  |
| CC(Oc1cccc(Cl)c1)C(=O)NNC(=O)c1cccnc1 (centres undefined) |  |  | > 53 µM (inactive) | > 47.1 µM (inactive) |  |
| Oc1ccc(/C=N/Nc2nc(N3CCCCCC3)nc(N3CCCCCC3)n2)c(O)c1 |  | 1.86 µM (active) | > 53 µM (inactive) | > 47.1 µM (inactive) | EC50 [1]: 1.13 µM (active) |
